Assay results from US6545026B1, “Substituted benzylthiazolidine-2,4-dione derivatives” (Kyorin Pharmaceutical Co., Ltd., priority 1999, dated 2003).
Like-named read-outs stand apart in the source and are kept apart here.

Key:
[1] = molecular target: T1, fused protein of DNA-binding domain of yeast transcription factor with ligand-binding domain of human type PPAR α (Homo sapiens, UniProt Q07869); test: Test of transactivation on peroxisome proliferator-activated receptor α (CHO cells, reporter assay)
T1 sequence (Q07869 239-466 limits assumed): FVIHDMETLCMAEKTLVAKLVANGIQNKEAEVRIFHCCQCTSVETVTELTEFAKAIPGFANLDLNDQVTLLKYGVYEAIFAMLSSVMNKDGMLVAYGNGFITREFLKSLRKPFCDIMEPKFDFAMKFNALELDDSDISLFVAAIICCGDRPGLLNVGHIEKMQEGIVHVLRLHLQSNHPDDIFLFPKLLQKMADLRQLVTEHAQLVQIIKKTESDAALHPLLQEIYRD
Experimental: (§1) Test of transactivation on peroxisome proliferator-activated receptors α and γ
(§2) After 24 hours, CAT activity and γ-galactosidase activity were measured.

[2] = molecular target: T2, fused protein of DNA-binding domain of yeast transcription factor with ligand-binding domain of human type PPAR γ (Homo sapiens, UniProt P37231); test: Test of transactivation on peroxisome proliferator-activated receptor γ (CHO cells, reporter assay)
T2 sequence (P37231 238-503 limits assumed): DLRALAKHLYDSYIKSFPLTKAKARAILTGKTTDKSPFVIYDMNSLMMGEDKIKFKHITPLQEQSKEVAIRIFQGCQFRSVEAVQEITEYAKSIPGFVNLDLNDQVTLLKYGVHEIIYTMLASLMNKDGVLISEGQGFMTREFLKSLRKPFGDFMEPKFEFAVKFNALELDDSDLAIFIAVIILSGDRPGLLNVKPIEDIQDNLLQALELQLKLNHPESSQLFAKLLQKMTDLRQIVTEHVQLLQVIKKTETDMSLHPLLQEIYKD
Experimental: as §1, §2

| SMILES | EC50 ([1]; read-out: Transactivation PPARα EC50, CHO cells, cotransfected receptor and reporter plasmid, 24 hours, CAT activity) [nM] | EC50 [1] [nM] | EC50 [2] [nM] |
| --- | --- | --- | --- |
| COc1ccc(CC2SC(=O)NC2=O)cc1C(=O)NCc1ccccn1 (stereo not drawn) [Example 1, N-[(2-Pyridyl)methyl]-5-[(2,4-dioxothiazolidin-5-yl)methyl]-2-methoxybenzamide] |  | 353 | 300 |
| COc1ccc(CC2SC(=O)NC2=O)cc1C(=O)NCc1cccnc1 (stereo not drawn) [Example 2, N-[(3-Pyridyl)methyl]-5-[(2,4-dioxothiazolidin-5-yl)methyl]-2-methoxybenzamide] |  | 420 | 960 |

Other lines, results leading:

| EC50 ([1]; read-out: Transactivation PPARα EC50, CHO cells, cotransfected receptor and reporter plasmid, 24 hours, CAT activity) [nM] | EC50 [1] [nM] | EC50 [2] [nM] | SMILES |
| --- | --- | --- | --- |
| 1300 |  |  | CCCCC/C=C\C/C=C\C=C\[C@@H](O)C/C=C\CCCC(=O)O [(8S)-HETE, reference compound] |
|  | 235 | 140 | COc1ccc(CC2SC(=O)NC2=O)cc1C(=O)NCc1ccncc1 (stereo not drawn) [Example 3, N-[(4-Pyridyl)methyl]-5-[(2,4-dioxothiazolidin-5-yl)methyl]-2-methoxybenzamide] |
|  | 300 | 230 | COc1ccc(CC2SC(=O)NC2=O)cc1C(=O)NCC1CCCCC1 (stereo not drawn) [Example 4, N-(Cyclohexylmethyl)-5-[(2,4-dioxothiazolidin-5-yl)methyl]-2-methoxybenzamide] |
